Experimental data from patent US20250136614A1, “2,7-SUBSTITUTED PYRROLO[2,1-F][1,2,4]TRIAZINE COMPOUND HAVING PROTEIN KINASE INHIBITORY ACTIVITY” (Magicbullettherapeutics Co., Ltd., priority 2021, published 2025).

Tests used:
Type in all cases: cell-based
H1975 = test: Cancer cell growth inhibition (CellTiter-Glo, 72 hours); conditions: Homo sapiens, NCI-H1975, H1975 cells, read-out: GI50s (μM) H1975
Description: (§1) Seeding 3000 cells per well in a 96-well plate. After cell stabilization, treat the cells with compounds diluted in 0.5% DMSO at a ⅓ serial dilution and culture for 72 hours. Following treatment with CellTiter-Glo, luminescence is produced only in the presence of ATP, as luciferase degrades luciferin. Luminescence values were measured using Envision (PerkinElmer). Based on the measured luminescence values, the concentration of compounds causing cell death was calculated to determine the GI50 value.
(§2) The activity values were categorized into three levels • A: IC50<1 μM • B: 1 μM≤IC50<10 μM, • C: IC50≥10 μM

H23 = test: as above; conditions: Homo sapiens, NCI-H23, H23 cells, read-out: GI50s (μM) H23
Description: as §1, §2

H358 = test: as above; conditions: Homo sapiens, NCI-H358, H358 cells, read-out: GI50s (μM) H358
Description: as §1, §2

HCT116 = test: as above; conditions: Homo sapiens, HCT-116, HCT116 cells, read-out: GI50s (μM) HCT116
Description: as §1, §2

MDA-MB-231 = test: as above; conditions: Homo sapiens, MDA-MB-231 cells, read-out: GI50s (μM) MDA-MB-231
Description: as §1, §2

colo205 = test: as above; conditions: Homo sapiens, COLO 205, colo205 cells, read-out: GI50s (μM) colo205
Description: as §1, §2

[1] = target: T1, Ba/F3 FLT3 (ITD/D835YF691L) (Homo sapiens, UniProt P36888, F691L/D835Y, cells depend on it, form not given); test: Ba/F3 cell growth inhibition (CellTiter-Glo, 72 hours); conditions: read-out: Ba/F3 GI50s (μM) FLT3 (ITD/D835YF691L)
T1 sequence (P36888 1-993 F691L/D835Y): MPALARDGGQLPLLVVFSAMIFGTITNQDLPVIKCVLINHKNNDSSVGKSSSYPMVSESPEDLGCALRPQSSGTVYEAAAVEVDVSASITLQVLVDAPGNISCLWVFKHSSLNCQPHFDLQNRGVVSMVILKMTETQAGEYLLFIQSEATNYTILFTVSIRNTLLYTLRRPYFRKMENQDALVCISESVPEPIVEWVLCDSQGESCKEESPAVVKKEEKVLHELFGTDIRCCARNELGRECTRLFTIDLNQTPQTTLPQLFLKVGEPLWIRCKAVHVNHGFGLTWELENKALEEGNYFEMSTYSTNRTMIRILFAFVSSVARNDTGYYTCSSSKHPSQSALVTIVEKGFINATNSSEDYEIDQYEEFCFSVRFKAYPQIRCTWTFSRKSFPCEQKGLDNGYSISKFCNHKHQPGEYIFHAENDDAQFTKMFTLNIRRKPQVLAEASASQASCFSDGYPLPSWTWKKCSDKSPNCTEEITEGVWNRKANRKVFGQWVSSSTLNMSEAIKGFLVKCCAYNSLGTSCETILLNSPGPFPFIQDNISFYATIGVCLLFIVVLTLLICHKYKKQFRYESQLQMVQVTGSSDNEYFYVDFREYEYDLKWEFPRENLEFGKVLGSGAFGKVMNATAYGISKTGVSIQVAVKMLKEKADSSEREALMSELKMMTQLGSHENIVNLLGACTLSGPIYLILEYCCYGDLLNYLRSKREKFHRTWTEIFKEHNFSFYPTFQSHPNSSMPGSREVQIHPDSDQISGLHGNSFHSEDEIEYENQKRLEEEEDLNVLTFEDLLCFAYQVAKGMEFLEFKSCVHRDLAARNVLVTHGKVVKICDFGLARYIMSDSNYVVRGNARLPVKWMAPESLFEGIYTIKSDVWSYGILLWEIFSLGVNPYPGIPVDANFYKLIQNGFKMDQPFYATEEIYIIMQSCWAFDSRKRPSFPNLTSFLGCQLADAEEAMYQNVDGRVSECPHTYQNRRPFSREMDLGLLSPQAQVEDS

O=C1CCCCOc2ccc(cc2)-c2ccc3cnc(nn23)Nc2cnn(c2)C2CCN(CCCN1)CC2 [Example 26, (2^1Z,4^4E)-4^1H-15-oxa-3,9-diaza-2(7,2)-pyrrolo[2,1-f1][1,2,4]triazina-5(4,1)-piperidina-4(4,1)-pyrazola-1(1,4)-benzenacyclopentadecaphan-10-one]
≥ 10 µM: IC50 (MDA-MB-231)
< 1 µM: IC50 (H1975) | IC50 (H23) | IC50 (H358) | IC50 (HCT116) | IC50 (colo205) | GI50 [1]

O=C1CCCCCCOc2ccc(cc2)-c2ccc3cnc(nn23)Nc2cnn(c2)C2CCN(CCCN1)CC2 [Example 27, (2^1Z,4^4E)-4^1H-17-oxa-3,9-diaza-2(7,2)-pyrrolo[2,1-f1][1,2,4]triazina-5(4,1)-piperidina-4(4,1)-pyrazola-1(1,4)-benzenacycloheptadecaphan-10-one]
1 to 10 µM: IC50 (H23) | IC50 (H358) | IC50 (MDA-MB-231)
≥ 10 µM: IC50 (H1975) | IC50 (HCT116) | IC50 (colo205)
< 1 µM: GI50 [1]

O=C1COCCOc2ccc(cc2)-c2ccc3cnc(nn23)Nc2ccc(cc2)OCCCN1 [Example 28, (Z)-5,12,15-trioxa-3,9-diaza-2(7,2)-pyrrolo[2,1-f][1,2,4]triazina-1,4(1,4)-dibenzenacyclopentadecaphan-10-one]
1 to 10 µM: IC50 (H1975) | IC50 (H23) | IC50 (H358) | IC50 (HCT116) | IC50 (colo205) | GI50 [1]
≥ 10 µM: IC50 (MDA-MB-231)

O=C1CCCCCCOc2ccc(cc2)-c2ccc3cnc(nn23)Nc2ccc(cc2)OCCCN1 [Example 29, (Z)-5,17-dioxa-3,9-diaza-2(7,2)-pyrrolo[2,1-f][1,2,4]triazina-1,4(1,4)-dibenzenacycloheptadecaphan-10-one]
≥ 10 µM: IC50 (MDA-MB-231)
1 to 10 µM: IC50 (H1975) | IC50 (H23) | IC50 (H358) | IC50 (HCT116) | IC50 (colo205) | GI50 [1]

c1cc2ccc1Nc1ncc3ccc(n3n1)-c1ccc(cc1)OCCNCCCO2 [Example 30, (Z)-5,12-dioxa-3,9-diaza-2(7,2)-pyrrolo[2,1-f][1,2,4]triazina-1,4(1,4)-dibenzenacyclododecaphane]
1 to 10 µM: IC50 (H1975) | IC50 (H23) | IC50 (H358) | IC50 (HCT116) | IC50 (MDA-MB-231) | IC50 (colo205)
< 1 µM: GI50 [1]

COc1cc2ccc1Nc1ncc3ccc(n3n1)-c1ccc(cc1)OCCOCC(=O)NCCCO2 [Example 34, (Z)-42-methoxy-5,12,15-trioxa-3,9-diaza-2(7,2)-pyrrolo[2,1-f][1,2,4]triazina-1,4(1,4)-dibenzenacyclopentadecaphan-10-one]
≥ 10 µM: IC50 (H1975) | IC50 (H23) | IC50 (H358) | IC50 (HCT116) | IC50 (colo205)
1 to 10 µM: IC50 (MDA-MB-231) | GI50 [1]

O=C1COCCOc2ccc(cc2)-c2ccc3cnc(nn23)Nc2cnn(c2)CCCN1 [Example 35, (2^1Z,4^4E)-4^1H-11,14-dioxa-3,8-diaza-2(7,2)-pyrrolo[2,1-f1][1,2,4]triazina-4(4,1)-pyrazola-1(1,4)-benzenacyclotetradecaphan-9-one]
≥ 10 µM: IC50 (MDA-MB-231)
< 1 µM: GI50 [1]
1 to 10 µM: IC50 (H1975) | IC50 (H23) | IC50 (H358) | IC50 (HCT116) | IC50 (colo205)

O=C1CCCCOc2ccc(cc2)-c2ccc3cnc(nn23)Nc2cnn(c2)CCCN1 [Example 36, (2^1Z,4^4E)-4^1H-14-oxa-3,8-diaza-2(7,2)-pyrrolo[2,1-f][1,2,4]triazina-4(4,1)-pyrazola-1(1,4)-benzenacyclotetradecaphan-9-one]
≥ 10 µM: IC50 (MDA-MB-231)
< 1 µM: IC50 (H23) | IC50 (HCT116) | GI50 [1]
1 to 10 µM: IC50 (H1975) | IC50 (H358) | IC50 (colo205)

O=C1CCCCCCOc2ccc(cc2)-c2ccc3cnc(nn23)Nc2cnn(c2)CCCN1 [Example 37, (2^1Z,4^4E)-4^1H-16-oxa-3,8-diaza-2(7,2)-pyrrolo[2,1-f1][1,2,4]triazina-4(4,1)-pyrazola-1(1,4)-benzenacyclohexadecaphan-9-one]
1 to 10 µM: IC50 (H23) | IC50 (HCT116) | GI50 [1]
≥ 10 µM: IC50 (H1975) | IC50 (H358) | IC50 (MDA-MB-231) | IC50 (colo205)

O=C1CCCCOc2ccc(cc2)-c2ccc3cnc(nn23)Nc2ccc(cc2)OCCCN1 [Example 38, (Z)-5,15-dioxa-3,9-diaza-2(7,2)-pyrrolo[2,1-f][1,2,4]triazina-1,4(1,4)-dibenzenacyclopentadecaphan-10-one]
1 to 10 µM: IC50 (H358) | IC50 (HCT116) | GI50 [1]
≥ 10 µM: IC50 (H1975) | IC50 (H23) | IC50 (MDA-MB-231) | IC50 (colo205)

CS(=O)(=O)Nc1cccc(-c2ccc3cnc(Nc4ccc(N5CCN(CCCCCOc6cccc7c6C(=O)N(C6CCC(=O)NC6=O)C7=O)CC5)cc4)nn23)c1 (stereo not shown) [Example 39]
≥ 10 µM: IC50 (H1975) | IC50 (H23) | IC50 (H358) | IC50 (HCT116) | IC50 (MDA-MB-231) | IC50 (colo205) | GI50 [1]

CS(=O)(=O)Nc1cccc(-c2ccc3cnc(Nc4ccc(N5CCN(CCCOc6cccc7c6C(=O)N(C6CCC(=O)NC6=O)C7=O)CC5)cc4)nn23)c1 (stereo not shown) [Example 40]
≥ 10 µM: IC50 (H1975) | IC50 (H23) | IC50 (H358) | IC50 (MDA-MB-231) | IC50 (colo205)
< 1 µM: GI50 [1]
1 to 10 µM: IC50 (HCT116)

CS(=O)(=O)Nc1cccc(-c2ccc3cnc(Nc4ccc(N5CCN(CCCCCCCOc6cccc7c6C(=O)N(C6CCC(=O)NC6=O)C7=O)CC5)cc4)nn23)c1 (stereo not shown) [Example 41]
< 1 µM: GI50 [1]
≥ 10 µM: IC50 (H1975) | IC50 (H23) | IC50 (H358) | IC50 (HCT116) | IC50 (MDA-MB-231) | IC50 (colo205)

CS(=O)(=O)Nc1cccc(-c2ccc3cnc(Nc4ccc(N5CCN(CCCCCCCCCCCOc6cccc7c6C(=O)N(C6CCC(=O)NC6=O)C7=O)CC5)cc4)nn23)c1 (stereo not shown) [Example 42]
≥ 10 µM: IC50 (H1975) | IC50 (H23) | IC50 (H358) | IC50 (HCT116) | IC50 (MDA-MB-231) | IC50 (colo205)
1 to 10 µM: GI50 [1]

Cc1ncsc1-c1ccc(CNC(=O)[C@@H]2C[C@@H](O)CN2C(=O)[C@@H](NC(=O)COCCN2CCN(c3ccc(Nc4ncc5ccc(-c6cccc(NS(C)(=O)=O)c6)n5n4)cc3)CC2)C(C)(C)C)cc1 [Example 83, (2S,4R)-1-((S)-3,3-dimethyl-2-(2-(2-(4-(4-((7-(3-(methanesulfonamido)phenyl)pyrrolo[2,1-f][1,2,4]triazin-2-yl)amino)phenyl)piperazin-1-yl)ethoxy)acetaamino)butanoyl)-4-hydroxy-N-(4-(4-methylthiazol-5-yl)benzyl)pyrrolidin-2-carboxamide]
≥ 10 µM: IC50 (MDA-MB-231) | IC50 (colo205) | GI50 [1]
1 to 10 µM: IC50 (H1975) | IC50 (H23) | IC50 (H358) | IC50 (HCT116)

Cc1ncsc1-c1ccc(CNC(=O)[C@@H]2C[C@@H](O)CN2C(=O)[C@@H](NC(=O)CCOCCOCCN2CCN(c3ccc(Nc4ncc5ccc(-c6cccc(NS(C)(=O)=O)c6)n5n4)cc3)CC2)C(C)(C)C)cc1 [Example 84, (2S,4R)-1-((S)-3,3-dimethyl-2-(3-(2-(2-(4-(4-((7-(3-(methanesulfonamido)phenyl)pyrrolo[2,1-f][1,2,4]triazin-2-yl)amino)phenyl)piperazin-1-yl)ethoxy)ethoxy)propanamido)butanoyl)-4-hydroxy-N-(4-(4-methylthiazol-5-yl)benzyl)pyrrolidin-2-carboxamide]
≥ 10 µM: IC50 (MDA-MB-231) | IC50 (colo205) | GI50 [1]
1 to 10 µM: IC50 (H1975) | IC50 (H23) | IC50 (H358) | IC50 (HCT116)
